The text below walks through data of patent US12343368B2, “Cleome droserifolia extract and therapeutic or cosmetic use thereof” (ANPJ HEALTHCARE, priority 2019, dated 2025).

One may read the viability as the share of living cells, or the viability signal relative to a control.

Data set [1] can be described thus: Antioxidant activity, cell viability (MTT) after hydrogen peroxide stress. The note with it: mouse, NCTC clone 929 cells, Without H2O2, read-out: Cellular viability (%). It is filed as cell-based.
Data set [2] deals with NCTC clone 929 cell line. The data set is described as above. It is filed as cell-based. The note with it: 0.56 mg/ml; for Absorbance Mean: 570 nm.
Data set [3] concerns citrated ovine plasma. The data set is described as follows: Coagulant activity in vitro (coagulation time, coagulometer). It is filed as biochemical. As for the experimental part:
The material used is described as follows: • The 6th international standard for unfractionated heparin (WHO 07; 328) • Activated cephaloplastin reagent Dade® Actin®—Siemens • Calcium chloride—Siemens®. • Thermo Scientific coagulometer • Citrated ovine plasma 8.7%. • Aqueous extract of lyophilized Cleome droserifolia The operating protocol is described as follows: The lyophilized extract was dissolved in ultrapure water to obtain a stock concentration of 2 mg/ml. Dilution was carried out to obtain a concentration of 0.6 mg/ml. In a first experiment, 100 μl of each of the following solutions was added to the cuvettes of the coagulometer (n=2): • Lyophilisate solution concentrated at 0.6 mg/ml, • Heparin solution at a concentration of 0.6 IU/ml • Physiological solution for the control group, • Then, 100 μl of sheep plasma was added to all the wells. • After 2 minutes, 100 μl of reactant activated with Cephalosplatin Cade® Actin was added. • After 5 minutes of incubation, 100 μl of calcium chloride solution were added and the coagulation times were recorded.

As to `O=C1O[C@H]([C@@H](O)CO)C(O)=C1O` [ascorbic acid], the viability at 24 h, 0.56 mg/ml in data set [1] is 77.6%. In addition, the viability at 25 µM in data set [2] (NCTC clone 929, With H2O2 (25 μM), read-out: Cellular viability (%)) amounted to 74.4%. The “Absorbance Mean” value in data set [2] (With H2O2 (25 μM)) is recorded as 0.3564; in data set [2] (Without H2O2) it was 0.3719.

Turning to Heparin, the coagulation time in data set [3] (heparin) and in data set [3] (heparin 0.6 IU/ml) was 54.3 s throughout.
